Earlier results in patent US12270126B2, “Wound dressing” (University of Central Oklahoma, priority 2019, dated 2025).

Tests used:
[1] = system: Methicillin-resistant S. aureus (MRSA)
[2] = system: Bacillus subtilis (B. subtilis)

Measured: inhibitory effect on microorganism

Cc1ccc(C(C)C)cc1O [carvacrol]
inhibitory effect: [1] | E. coli | [2] | Saccharomyces cerevisiae

Cc1ccc(C(C)C)c(O)c1 [thymol]
inhibitory effect: [1] | E. coli | [2] | Saccharomyces cerevisiae
